Patent publication US8623864B2, “Thioridazine and derivatives thereof for reversing anti-microbial drug-resistance” (NOA Sic Aps, priority 2003, dated 2014)
Like-named read-outs stand apart in the source and are kept apart here.

Tests used:
Enterococcus faecalis = assay: Microdilution checkerboard, antibiotic plus resistance modifier; type: cell-based
[1] = test system: human Enterococcus faecalis; assay: as above; type: cell-based; conditions: Enterococcus faecalis, drug alone
a known bacterial strain = assay: MIC of erythromycin and thioridazine, alone and combined; type: cell-based
[2] = test system: Mycobacterium tuberculosis; conditions: Ordway et al. 2003; cited from earlier work
tumour cell lines = conditions: Akiyama et al. 1986; cited from earlier work
[3] = test system: a common bacterial strain; assay: MIC of oxacillin alone and combined with thioridazine; type: cell-based; conditions: read-out: effective MIC
[4] = strain A, each drug in the combination AMP + THIO
[5] = strain A, each drug in the combination VAN + THIO
[6] = strain B, each drug in the combination AMP + THIO
[7] = strain B, each drug in the combination VAN + THIO
[8] = strain C, each drug in the combination AMP + THIO
[9] = strain C, each drug in the combination VAN + THIO
[10] = strain D, each drug in the combination AMP + THIO
[11] = strain D, each drug in the combination VAN + THIO
[12] = strain E, each drug in the combination AMP + THIO
[13] = strain E, each drug in the combination VAN + THIO
[14] = strain A, read-out: MIC of single drug (microdilution checkerboard)
[15] = strain B, read-out: MIC of single drug (microdilution checkerboard)
[16] = strain C, read-out: MIC of single drug (microdilution checkerboard)
[17] = strain D, read-out: MIC of single drug (microdilution checkerboard)
[18] = strain E, read-out: MIC of single drug (microdilution checkerboard)
[19] = strain A, each drug in the combination AMP + PCP
[20] = strain A, each drug in the combination VAN + PCP
[21] = strain B, each drug in the combination AMP + PCP
[22] = strain B, each drug in the combination VAN + PCP
[23] = strain C, each drug in the combination AMP + PCP
[24] = strain C, each drug in the combination VAN + PCP
[25] = strain D, each drug in the combination AMP + PCP
[26] = strain D, each drug in the combination VAN + PCP
[27] = strain E, each drug in the combination AMP + PCP
[28] = strain E, each drug in the combination VAN + PCP

SMILES	Combination of drugs (MIC) (Enterococcus faecalis; [4]) [µg/mL]	Combination of drugs (MIC) (Enterococcus faecalis; [5]) [µg/mL]	Combination of drugs (MIC) (Enterococcus faecalis; [6]) [µg/mL]	Combination of drugs (MIC) (Enterococcus faecalis; [7]) [µg/mL]	Combination of drugs (MIC) (Enterococcus faecalis; [8])	Combination of drugs (MIC) (Enterococcus faecalis; [9]) [µg/mL]	Combination of drugs (MIC) (Enterococcus faecalis; [10]) [µg/mL]	Combination of drugs (MIC) (Enterococcus faecalis; [11]) [µg/mL]	Combination of drugs (MIC) (Enterococcus faecalis; [12]) [µg/mL]	Combination of drugs (MIC) (Enterococcus faecalis; [13]) [µg/mL]	MIC [1, 14] [µg/mL]	MIC [1, 15] [µg/mL]	MIC [1, 16] [µg/mL]	MIC [1, 17] [µg/mL]	MIC [1, 18] [µg/mL]	MIC (a known bacterial strain) [µg/mL]	Combination of drugs (MIC) (Enterococcus faecalis; [19]) [µg/mL]	Combination of drugs (MIC) (Enterococcus faecalis; [20]) [µg/mL]	Combination of drugs (MIC) (Enterococcus faecalis; [21]) [µg/mL]	Combination of drugs (MIC) (Enterococcus faecalis; [22]) [µg/mL]	further results
CSc1ccc2c(c1)N(CCC1CCCCN1C)c1ccccc1S2 (racemic) [THIO, thioridazine]	16	8	8	32	AMP (4) + THIO (4) μg/ml	4	4	8	8	2	32	32	32	32	32	16	–	–	–	–	Ability to kill bacteria in vitro [2]: kill Mycobacterium tuberculosis in vitro; Reversal of resistance to antineoplastic agents (tumour cell lines): effective in reversing resistance to a variety of antineoplastic agents
CC[C@H]1OC(=O)[C@H](C)[C@@H](O[C@H]2C[C@@](C)(OC)[C@@H](O)[C@H](C)O2)[C@H](C)[C@@H](O[C@@H]2O[C@H](C)C[C@H](N(C)C)[C@H]2O)[C@](C)(O)C[C@@H](C)C(=O)[C@H](C)[C@@H](O)[C@]1(C)O [Erythromycin]	–	–	–	–	–	–	–	–	–	–	–	–	–	–	–	24	–	–	–	–	Erythromycin concentration needed in combination (a known bacterial strain; combined with 12 μg/ml of the levorotatory isomer of thioridazine): 1 µg/mL; Erythromycin concentration needed in combination (a known bacterial strain; combined with 12 μg/ml of thioridazine in racemic form): less than 8 μg/ml
CN1CCN(CCCN2c3ccccc3Sc3ccc(Cl)cc32)CC1 [PCP, prochlorperazine]	–	–	–	–	–	–	–	–	–	–	32	64	32	32	32	–	0.25	16	16	16	Combination of drugs (MIC) (Enterococcus faecalis; [23]): 0.5 µg/mL; Combination of drugs (MIC) (Enterococcus faecalis; [24]): 8 µg/mL; Combination of drugs (MIC) (Enterococcus faecalis; [25]): 8 µg/mL; Combination of drugs (MIC) (Enterococcus faecalis; [26]): 8 µg/mL; Combination of drugs (MIC) (Enterococcus faecalis; [27]): 16 µg/mL; Combination of drugs (MIC) (Enterococcus faecalis; [28]): 8 µg/mL
CC1(C)S[C@@H]2[C@H](NC(=O)[C@H](N)c3ccccc3)C(=O)N2[C@H]1C(=O)O [ampicillin]	1	–	0.5	–	AMP (4) + THIO (4) μg/ml	–	0.25	–	16	–	32	2	16	1	128	–	32	–	0.5	–	Combination of drugs (MIC) (Enterococcus faecalis; [23]): 8 µg/mL; Combination of drugs (MIC) (Enterococcus faecalis; [25]): 0.25 µg/mL; Combination of drugs (MIC) (Enterococcus faecalis; [27]): 64 µg/mL
Cc1onc(-c2ccccc2)c1C(=O)N[C@@H]1C(=O)N2[C@@H]1SC(C)(C)[C@@H]2C(=O)O [oxacillin]	–	–	–	–	–	–	–	–	–	–	–	–	–	–	–	–	–	–	–	–	MIC ([3]; combined with 8 μg/ml of thioridazine): 1 µg/mL; MIC ([3]; oxacillin alone, common bacterial strain): > 256 µg/mL
CN[C@H](CC(C)C)C(=O)N[C@H]1C(=O)N[C@@H](CC(N)=O)C(=O)N[C@H]2C(=O)N[C@H]3C(=O)N[C@H](C(=O)N[C@H](C(=O)O)c4cc(O)cc(O)c4-c4cc3ccc4O)[C@H](O)c3ccc(c(Cl)c3)Oc3cc2cc(c3O[C@@H]2O[C@H](CO)[C@@H](O)[C@H](O)[C@H]2O[C@H]2C[C@](C)(N)[C@H](O)[C@H](C)O2)Oc2ccc(cc2Cl)[C@H]1O [vancomycin]	–	6	–	2	–	64	–	32	–	1	–	–	–	–	–	–	–	48	–	1	Combination of drugs (MIC) (Enterococcus faecalis; [24]): 64 µg/mL; Combination of drugs (MIC) (Enterococcus faecalis; [26]): 32 µg/mL; Combination of drugs (MIC) (Enterococcus faecalis; [28]): 0.5 µg/mL; MIC ([1]; read-out: MIC of single drug (microdilution checkerboard), strain A): 192 µg/mL; MIC ([1]; read-out: MIC of single drug (microdilution checkerboard), strain B): 4 µg/mL; MIC ([1]; read-out: MIC of single drug (microdilution checkerboard), strain C): 128 µg/mL; MIC ([1]; read-out: MIC of single drug (microdilution checkerboard), strain D): 500 µg/mL; MIC ([1]; read-out: MIC of single drug (microdilution checkerboard), strain E): 2 µg/mL
